The source of these data is patent publication US20110039762A1, “TARGETED ANTIMICROBIAL MOIETIES” (C3 JIAN, INC., priority 2009, published 2011).

Entries after “also recorded” stand apart in the source; their conditions may differ.

For the assay, the system named is microorganisms (e.g., bacteria, yeasts, fungi). Description: Targeting peptide binding to target microorganisms (Table 3). The conditions noted are these: microorganism the targeting peptide binds; binding in aqueous buffers varied by peptide solubility, preferably 1x PBS.
For the substance “1T-44 (DPALADFAAGMRAQVRT; Peptide with targeting and/or antimicrobial activity) [Peptide 1T-44]”, the “Target(s)” value is “S. mutans; also recorded: S. aureus; also recorded: S. epidermidis; also recorded: C. jeikeium; also recorded: C. striatum; also recorded: P. aeruginosa”. For “1T-45 (WTKPSFTDLRLGFEVTLYFANR; Peptide with targeting and/or antimicrobial activity) [Peptide 1T-45]”, the “Target(s)” value is recorded as “S. aureus; also recorded: S. epidermidis; also recorded: C. striatum; also recorded: P. aeruginosa”. Turning to “1T-46 (FSFKQRVMFRKEVERLR; Peptide with targeting and/or antimicrobial activity) [Peptide 1T-46]”, the “Target(s)” value was “S. aureus; also recorded: S. epidermidis; also recorded: C. jeikeium; also recorded: C. xerosis; also recorded: C. striatum; also recorded: P. aeruginosa”. The result for “1T-47 (VIKISVPGQVQMLIP; Peptide with targeting and/or antimicrobial activity) [Peptide 1T-47]” reads “S. mutans; also recorded: S. epidermidis; also recorded: P. aeruginosa”; that for “1T-48 (KLQVHHGRATHTLLLQPPLCAPGTIR; Peptide with targeting and/or antimicrobial activity) [Peptide 1T-48]”, “S. aureus; also recorded: S. epidermidis; also recorded: C. jeikeium; also recorded: C. xerosis; also recorded: C. striatum; also recorded: P. aeruginosa”. For the substance “1T-49 (SLVRIHDQQPWVTRGAFIDAARTCS; Peptide with targeting and/or antimicrobial activity) [Peptide 1T-49]”, the “Target(s)” value is listed as “S. aureus; also recorded: S. epidermidis; also recorded: C. jeikeium; also recorded: P. aeruginosa”. In the case of “1T-50 (HSDEPIPNILFKSDSVH; Peptide with targeting and/or antimicrobial activity) [Peptide 1T-50]” it was “P. aeruginosa”. The result for “1T-51 (GKPKRMPAEFIDGYGQALLAGA; Peptide with targeting and/or antimicrobial activity) [Peptide 1T-51]” reads “S. aureus; also recorded: P. aeruginosa”; that for “1T-52 (DEYPAKLPLSDKGATEPRRH; Peptide with targeting and/or antimicrobial activity) [Peptide 1T-52]”, “S. aureus; also recorded: C. xerosis; also recorded: P. aeruginosa”.

“1T-53 (SDILAEMFEKGELQTLVKDAAAKANA; Peptide with targeting and/or antimicrobial activity) [Peptide 1T-53]”: the “Target(s)” value is “P. aeruginosa”. For “1T-54 (RWVSCNPSWRIQ; Peptide with targeting and/or antimicrobial activity) [Peptide 1T-54]”, the “Target(s)” value is listed as “S. epidermidis; also recorded: C. xerosis; also recorded: C. striatum; also recorded: P. aeruginosa”. In the case of “1T-55 (NHKTLKEWKAKWGPEAVESWATLLG; Peptide with targeting and/or antimicrobial activity) [Peptide 1T-55]”, the “Target(s)” value is recorded as “C. xerosis; also recorded: P. aeruginosa”. “1T-56 (LALIGAGIWMIRKG; Peptide with targeting and/or antimicrobial activity) [Peptide 1T-56]”: the “Target(s)” value was “C. xerosis; also recorded: P. aeruginosa”.

On to “1T-57 (RLEYRRLETQVEENPESGRRPMRG; Peptide with targeting and/or antimicrobial activity) [Peptide 1T-57]”, for which the “Target(s)” value is listed as “P. aeruginosa”.

With “1T-58 (CDDLHALERAGKLDALLSA; Peptide with targeting and/or antimicrobial activity) [Peptide 1T-58]”, the “Target(s)” value is “P. aeruginosa”. In the case of “1T-59 (AVGNNLGKDNDSGHRGKKHRKHKHR; Peptide with targeting and/or antimicrobial activity) [Peptide 1T-59]” it was “S. aureus; also recorded: S. epidermidis; also recorded: P. aeruginosa”; in that of “1T-60 (YLTSLGLDAAEQAQGLLTILKG; Peptide with targeting and/or antimicrobial activity) [Peptide 1T-60]”, “S. aureus; also recorded: S. epidermidis; also recorded: C. jeikeium; also recorded: C. striatum; also recorded: P. aeruginosa”; in that of “1T-61 (HATLLPAVREAISRQLLPALVPRG; Peptide with targeting and/or antimicrobial activity) [Peptide 1T-61]”, “P. aeruginosa”.

“1T-62 (GCKGCAQRDPCAEPEPYFRLR; Peptide with targeting and/or antimicrobial activity) [Peptide 1T-62]”: the “Target(s)” value is given as “S. epidermidis; also recorded: P. aeruginosa”. Consider “1T-63 (EPLILKELVRNLFLFCYARALR; Peptide with targeting and/or antimicrobial activity) [Peptide 1T-63]”, for which the “Target(s)” value is reported as “S. aureus; also recorded: S. epidermidis; also recorded: C. jeikeium; also recorded: C. xerosis; also recorded: C. striatum; also recorded: P. aeruginosa”. In the case of “1T-64 (QTVHHIHMHVLGQRQMHWPPG; Peptide with targeting and/or antimicrobial activity) [Peptide 1T-64]” it was “S. aureus; also recorded: S. epidermidis; also recorded: C. jeikeium; also recorded: C. xerosis; also recorded: C. striatum; also recorded: P. aeruginosa”. Take “1T-65 (HARAAVGVAELPRGAAVEVELIAAVRP; Peptide with targeting and/or antimicrobial activity) [Peptide 1T-65]”: the “Target(s)” value was “S. mutans; also recorded: S. aureus; also recorded: S. epidermidis; also recorded: C. jeikeium; also recorded: C. xerosis; also recorded: C. striatum; also recorded: P. aeruginosa”. Take “1T-66 (DTDCLSRAYAQRIDELDKQYAGIDKPL; Peptide with targeting and/or antimicrobial activity) [Peptide 1T-66]”: the “Target(s)” value was “S. mutans; also recorded: S. aureus; also recorded: S. epidermidis; also recorded: C. jeikeium; also recorded: C. xerosis; also recorded: C. striatum; also recorded: P. aeruginosa”. As to “1T-67 (GQRQRLTCGRVSGCSEGPSREAAR; Peptide with targeting and/or antimicrobial activity) [Peptide 1T-67]”, the “Target(s)” value is on record as “S. aureus; also recorded: S. epidermidis; also recorded: C. jeikeium; also recorded: C. xerosis; also recorded: C. striatum; also recorded: P. aeruginosa”.

For the substance “1T-68 (GGTKEIVYQRG; Peptide with targeting and/or antimicrobial activity) [Peptide 1T-68]”, the “Target(s)” value is reported as “S. mutans; also recorded: S. aureus; also recorded: C. jeikeium; also recorded: C. xerosis; also recorded: C. striatum; also recorded: P. aeruginosa”. “1T-69 (ILSQEADRKKLF; Peptide with targeting and/or antimicrobial activity) [Peptide 1T-69]”: the “Target(s)” value was “S. mutans; also recorded: P. aeruginosa”. “1T-70 (NRQAQGERAHGEQQG; Peptide with targeting and/or antimicrobial activity) [Peptide 1T-70]”: the “Target(s)” value is on record as “S. aureus; also recorded: C. jeikeium; also recorded: P. aeruginosa”. In the case of “1T-71 (KIDTNQWPPNKEG; Peptide with targeting and/or antimicrobial activity) [Peptide 1T-71]” it was “P. aeruginosa”; in that of “1T-72 (EPTDGVACKER; Peptide with targeting and/or antimicrobial activity) [Peptide 1T-72]”, “P. aeruginosa”. In the case of “1T-73 (GWWEELLHETILSKFKITKALELPIQL; Peptide with targeting and/or antimicrobial activity) [Peptide 1T-73]” it was “S. pneumoniae”; in that of “1T-74 (DIDWGRKISCAAGVAYGAIDGCATTV; Peptide with targeting and/or antimicrobial activity) [Peptide 1T-74]”, “S. pneumoniae”.

Turning to “1T-75 (GVARGLQLGIKTRTQWGAATGAA; Peptide with targeting and/or antimicrobial activity) [Peptide 1T-75]”, the “Target(s)” value was “S. pneumoniae”. The result for “1T-76 (EMRLSKFFRDFILWRKK; Peptide with targeting and/or antimicrobial activity) [Peptide 1T-76]” reads “S. pneumoniae”; that for “1T-77 (EMRISRIILDFLFLRKK; Peptide with targeting and/or antimicrobial activity) [Peptide 1T-77]”, “S. pneumoniae”. Turning to “1T-78 (FFKTIFVLILGALGVAAGLYIEKNYIDK; Peptide with targeting and/or antimicrobial activity) [Peptide 1T-78]”, the “Target(s)” value is listed as “S. pneumoniae”. The result for “1T-79 (FGTPWSITNFWKKNFNDRPDFDSDRRRY; Peptide with targeting and/or antimicrobial activity) [Peptide 1T-79]” reads “S. pneumoniae”; that for “1T-80 (GGNLGPGFGVIIP; Peptide with targeting and/or antimicrobial activity) [Peptide 1T-80]”, “S. pneumoniae”. With “1T-81 (AIATGLDIVDGKFDGYLWA; Peptide with targeting and/or antimicrobial activity) [Peptide 1T-81]”, the “Target(s)” value is given as “S. pneumoniae”. As for “1T-82 (FGVGVGIALFMAGYAIGKDLRKKFGKSC; Peptide with targeting and/or antimicrobial activity) [Peptide 1T-82]”, the “Target(s)” value was “S. pneumoniae”. With “1T-83 (QKPRKNETFIGYIQRYDIDGNGYQSLPCPQN; Peptide with targeting and/or antimicrobial activity) [Peptide 1T-83]”, the “Target(s)” value is listed as “S. pneumoniae”. The result for “1T-84 (FRKKRYGLSILLWLNAFTNLVNSIHAFYMTLF; Peptide with targeting and/or antimicrobial activity) [Peptide 1T-84]” reads “S. pneumoniae”. The result for “1T-86 (HRKNPVLGVGRRHRAHNVA; Peptide with targeting and/or antimicrobial activity) [Peptide 1T-86]” reads “S. mitis; also recorded: S. oralis; also recorded: S. salivarious”.
